This assay has as its system AK4 lymphoid leukemia ip, C3AKF1 mice, survival. Description: NCI In Vivo Anticancer Drug Screen. Data for tumor model AK4 Lymphoid Leukemia (intraperitoneal) in C3AKF1 (CHKRF1) mice. The settings on record: endpoint: median survival time, higher = longer survival. As to the method: The antitumor activity of compounds was measured in mice bearing transplantable tumors. Survival or tumor size were measured and the results are expressed as the measurement made in the treated group (T) divided by the measurement made in the vehicle treated control group (C). The tumor model used in this assay is AK4 Lymphoid Leukemia (intraperitoneal) in C3AKF1 (CHKRF1) mice

Setting [1] is: dose: 15.6 mg/kg/injection, schedule: Q01DX010 (ip), vehicle: saline.
[2] abbreviates: dose: 31.3 mg/kg/injection, schedule: Q01DX010 (ip), vehicle: saline.
The mark [3] stands for this setting: dose: 62.5 mg/kg/injection, schedule: Q01DX010 (ip), vehicle: saline.
Setting [4] is: dose: 125.0 mg/kg/injection, schedule: Q01DX010 (ip), vehicle: saline.
Setting [5] is: dose: 60.0 mg/kg/injection, schedule: Q01DX010 (ip), vehicle: saline.
[6] abbreviates: dose: 6.25 mg/kg/injection, schedule: Q01DX010 (ip), vehicle: saline.
[7] abbreviates: dose: 12.5 mg/kg/injection, schedule: Q01DX010 (ip), vehicle: saline.
[8] abbreviates: dose: 25.0 mg/kg/injection, schedule: Q01DX010 (ip), vehicle: saline.
Setting [9] is: dose: 50.0 mg/kg/injection, schedule: Q01DX010 (ip), vehicle: saline.
Where [10] appears, read: dose: 10.0 mg/kg/injection, schedule: Q01DX010 (ip), vehicle: saline.
Setting [11] is: dose: 20.0 mg/kg/injection, schedule: Q01DX010 (ip), vehicle: saline.
The mark [12] stands for this setting: dose: 40.0 mg/kg/injection, schedule: Q01DX010 (ip), vehicle: saline.
Where [13] appears, read: dose: 100.0 mg/kg/injection, schedule: Q01DX010 (ip), vehicle: saline.
The mark [14] stands for this setting: dose: 3.13 mg/kg/injection, schedule: Q01DX010 (ip), vehicle: saline.
[15] abbreviates: dose: 2.0 mg/kg/injection, schedule: Q01DX010 (ip), vehicle: saline.
The mark [16] stands for this setting: dose: 4.0 mg/kg/injection, schedule: Q01DX010 (ip), vehicle: saline.
Where [17] appears, read: dose: 8.0 mg/kg/injection, schedule: Q01DX010 (ip), vehicle: saline.
The mark [18] stands for this setting: dose: 16.0 mg/kg/injection, schedule: Q01DX010 (ip), vehicle: saline.

Values joined by “and” are separate entries in the source; they are usually repeats but may differ in a detail not shown here. Equal entries are not always repeated. Toxic doses and inconclusive results are not listed. Starred links: 1 amine or outer side, 2 acyl side, 3 side chain; linkers in the order of their positions; H or OH if unused. Positions of bridges follow the written chain, without caps; N, C: chain ends. Non-standard residues stand in square brackets, D forms with d. Residues, ends and D or L forms follow the SMILES beside them. Chains are numbered I, II in the order given. Actinocin(9to1) = Cc1c2oc3c(C)ccc(C(=O)[*:1])c3nc-2c(C(=O)[*:2])c(N)c1=O; aThr = C[C@H](O)[C@H](N)C(=O)O; NMeV = CN[C@H](C(=O)O)C(C)C; Sar = CNCC(=O)O

For `COc1ccc2c(c1OC)C(=O)O[C@@H]2[C@H]1c2c(cc3c(c2OC)OCO3)CCN1C`, the T/C is 100 % of control (dose: 0.9 mg/kg/injection, schedule: Q01DX010 (ip), vehicle: saline); 87 % of control (dose: 1.9 mg/kg/injection, schedule: Q01DX010 (ip), vehicle: saline); 87 % of control (dose: 3.9 mg/kg/injection, schedule: Q01DX010 (ip), vehicle: saline); 111 % of control and 87 % of control (dose: 7.8 mg/kg/injection, schedule: Q01DX010 (ip), vehicle: saline); 100 % of control under setting [1]; 100 % of control under setting [2]. Also, the T/C runs as follows: under setting [3], 94 % of control; under setting [4], 88 % of control; (dose: 250.0 mg/kg/injection, schedule: Q01DX010 (ip), vehicle: saline) 88 % of control.
As to `CN(C)[C@@H]1C(=O)C(C(N)=O)=C(O)[C@@]2(O)C(=O)C3=C(O)c4c(O)cccc4C[C@H]3C[C@@H]12`, the T/C by setting is: (dose: 7.5 mg/kg/injection, schedule: Q01DX010 (ip), vehicle: saline) 100 % of control; (dose: 15.0 mg/kg/injection, schedule: Q01DX010 (ip), vehicle: saline) 100 % of control and 105 % of control; (dose: 30.0 mg/kg/injection, schedule: Q01DX010 (ip), vehicle: saline) 100 % of control; under setting [5], 94 % of control.
Turning to `CS(=O)(=O)OCCCCOS(C)(=O)=O`, the T/C is 87 % of control and 100 % of control under setting [6]; 100 % of control and 87 % of control under setting [7]; 100 % of control under setting [8]; 87 % of control and 100 % of control under setting [9].
Regarding `CN(N=O)C(N)=O`, the T/C by setting is: under setting [10], 162 % of control; under setting [11], 225 % of control; under setting [12], 112 % of control.
As for `CCn1cnc2c(=S)nc[nH]c21`, the T/C was 100 % of control under setting [1], 88 % of control under setting [2], 88 % of control under setting [3] and 105 % of control under setting [4].
As for `CN(C)/N=N/c1nc[nH]c1C(N)=O`, the T/C under setting [13] is 155 % of control and 166 % of control; the T/C (dose: 200.0 mg/kg/injection, schedule: Q01DX010 (ip), vehicle: saline) was 177 % of control and 205 % of control.
For the compound `CN(Cc1cnc2nc(N)nc(N)c2n1)c1ccc(C(=O)N[C@@H](CCC(=O)O)C(=O)O)cc1`, the T/C reads like this: (dose: 0.19 mg/kg/injection, schedule: Q01DX Z (ip), vehicle: saline) 120 % of control; (dose: 0.38 mg/kg/injection, schedule: Q01DX010 (ip), vehicle: other) 155 % of control and 181 % of control; (dose: 0.38 mg/kg/injection, schedule: Q01DX Z (ip), vehicle: saline) 180 % of control; (dose: 0.75 mg/kg/injection, schedule: Q01DX010 (ip), vehicle: other) 160 % of control and 181 % of control; (dose: 0.75 mg/kg/injection, schedule: Q01DX Z (ip), vehicle: saline) 253 % of control and 361 % of control; (dose: 1.5 mg/kg/injection, schedule: Q01DX010 (ip), vehicle: other) 185 % of control and 256 % of control. Under “dose: 3.0 mg/kg/injection, schedule: Q01DX010 (ip), vehicle: other”, the T/C is 175 % of control.
As to `C[C@H]1C(=O)O[C@@H]2CCN3CC=C(COC(=O)[C@](C)(O)[C@@]1(C)O)[C@H]23`, the T/C is, setting by setting: under setting [14], 111 % of control; under setting [6], 100 % of control; under setting [7], 117 % of control.
In the case of `C=CC(CN1CC1)OC(C)=O` (centres undefined), the T/C is, setting by setting: under setting [15], 90 % of control and 100 % of control; under setting [16], 95 % of control and 111 % of control; under setting [17], 88 % of control and 120 % of control; under setting [18], 90 % of control.
`O=CN(O)CC(=O)O`: the T/C runs as follows: under setting [3], 100 % of control; (dose: 500.0 mg/kg/injection, schedule: Q01DX010 (ip), vehicle: saline) 90 % of control.
`O=C(O)CCCc1ccc(N(CCCl)CCCl)cc1`: the T/C is 100 % of control under setting [14]; 113 % of control and 120 % of control under setting [6]; 95 % of control under setting [7].
As to `CN(C)c1ccc(/C=C\c2ccnc3ccccc23)cc1`, the T/C by setting is: (dose: 1.5 mg/kg/injection, schedule: Q01DX010 (ip), vehicle: saline) 100 % of control; (dose: 3.0 mg/kg/injection, schedule: Q01DX010 (ip), vehicle: saline) 100 % of control; (dose: 6.0 mg/kg/injection, schedule: Q01DX010 (ip), vehicle: saline) 100 % of control; (dose: 12.0 mg/kg/injection, schedule: Q01DX010 (ip), vehicle: saline) 100 % of control.
`CCN(CC)c1ccc2cc3ccc(=[N+](CC)CC)cc-3oc2c1`: the T/C runs as follows: (dose: 1.0 mg/kg/injection, schedule: Q01DX010 (ip), vehicle: saline) 100 % of control; under setting [15], 100 % of control; under setting [16], 100 % of control; under setting [17], 100 % of control.
As to `COS(C)(=O)=O`, the T/C under setting [7] was 100 % of control and 105 % of control; the T/C under setting [8] is 100 % of control; the T/C under setting [9] is 88 % of control and 116 % of control; the T/C under setting [13] was 100 % of control and 111 % of control.
In the case of `CCC(=O)O[C@H]1CC[C@H]2[C@@H]3CCC4=CC(=O)CC[C@]4(C)[C@H]3CC[C@]12C`, the T/C by setting is: (dose: 125.0 mg/kg/injection, schedule: Q01DX010 (sc), vehicle: steriod suspending solution) 87 % of control; (dose: 250.0 mg/kg/injection, schedule: Q01DX010 (sc), vehicle: steriod suspending solution) 87 % of control; (dose: 500.0 mg/kg/injection, schedule: Q01DX010 (sc), vehicle: steriod suspending solution) 93 % of control; (dose: 1000.0 mg/kg/injection, schedule: Q01DX010 (sc), vehicle: steriod suspending solution) 87 % of control.
Regarding `CN(C)c1ccc(/C=C/c2ccnc3ccccc23)cc1`, the T/C by setting is: (dose: 5.0 mg/kg/injection, schedule: Q01DX010 (ip), vehicle: saline) 111 % of control; under setting [10], 105 % of control; under setting [11], 94 % of control; under setting [12], 100 % of control.
As to `CN(N=O)C(=O)NC(C=O)C(O)C(O)C(O)CO` (centres undefined), the T/C was 150 % of control under setting [5] and 150 % of control (dose: 90.0 mg/kg/injection, schedule: Q01DX010 (ip), vehicle: saline).
`Nc1nc(=S)c2ncn(C3OC(CO)C(O)C3O)c2[nH]1` (centres undefined): the T/C was 117 % of control under setting [15], 111 % of control under setting [16], 117 % of control under setting [17] and 94 % of control under setting [18].
For `O=C(Nc1ccc(NC2=NCCN2)cc1)c1ccc(C(=O)Nc2ccc(NC3=NCCN3)cc2)cc1`, the T/C was 95 % of control and 105 % of control under setting [15]; 90 % of control and 110 % of control under setting [16]; 110 % of control under setting [17]; 150 % of control under setting [18].
Turning to `Cc1c2oc3c(C)ccc(C(=O)N[C@@H]4C(=O)N[C@H](C(C)C)C(=O)N5CCC[C@H]5C(=O)N(C)CC(=O)N(C)[C@@H](C(C)C)C(=O)O[C@H]4C)c3nc-2c(C(=O)N[C@@H]2C(=O)N[C@H](C(C)C)C(=O)N3CCC[C@H]3C(=O)N(C)CC(=O)N(C)[C@@H](C(C)C)C(=O)O[C@H]2C)c(N)c1=O` (I: [aThr][dV]P[Sar][NMeV] / II: [aThr][dV]P[Sar][NMeV]; ester I:1-I:C, II:1-II:C; linker I:N-II:N via Actinocin(9to1)), the T/C runs as follows: (dose: 12.5 micrograms/kg/injection, schedule: Q01DX010 (ip), vehicle: other) 100 % of control and 86 % of control; (dose: 25.0 micrograms/kg/injection, schedule: Q01DX010 (ip), vehicle: other) 95 % of control and 105 % of control; (dose: 50.0 micrograms/kg/injection, schedule: Q01DX010 (ip), vehicle: other) 100 % of control; (dose: 100.0 micrograms/kg/injection, schedule: Q01DX010 (ip), vehicle: other) 100 % of control and 109 % of control.
